Measured values reported in patent US20080103191A1, “ENTACAPONE-DERIVATIVES” (priority 2006, published 2008).
Values after ≈ are worked out from the molar mass of the structure shown. Where two headings read alike, the source gives them in different places.

How the values were obtained:
[1] = Log D (pH 7.4) by isocratic HPLC; type: physicochemical; details: YMC Pro C18 column, phosphate buffer pH 7.4/acetonitrile 45/55
Summary of the method: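 Retention measured by isocratic HPLC on a C18 column (150 mm×4.0 mm, 3 μm) eluted with phosphate buffer pH 7.4/acetonitrile 45/55 (v/v) at 1.2 ml/min, run time 15-60 min. Detection at 220 nm.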

Plasma stability ex vivo = type: in vitro ADME; details: human plasma, 37° C., read-out: t1/2 plasma
Procedure: Plasma stability is determined in human and rat plasma ex vivo. For the determination of the plasma stability of the compounds of formula I, the test compounds were incubated with human plasma (c=5 μg/mL) at 37° C. for certain time intervals up to 60, resp. 120 min (depending on the compound). Afterwards the incubations were stopped by equivalent addition of acetonitrile for protein precipitation, and the samples were mixed and centrifuged. The supernatants were adequately diluted and analyzed by HPLC with UV detection at 305 nm.
The degradation of the compounds of formula I as well as the formation of the active drug entacapone were monitored, and the half-life times of the compounds of formula I were calculated from the obtained peak areas.

[2] = Permeability in Caco-2 cells, apical to basolateral; type: in vitro ADME; design: dose or concentration left out as unconfirmed; details: human; 21d Caco-2 monolayer, apical pH 6.5 to basolateral pH 7.4, 60 minutes
Summary of the method: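 21-day Caco-2 monolayers dosed apically at 20 mM nominal test item concentration, apical pH 6.5, basolateral pH 7.4. Basolateral receiver sampled after 60 min and quantified by HPLC or LC-MS/MS; ³H-propranolol and ³H-mannitol controls sampled at 120 min and measured by scintillation.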

[3] = Stability of Labrasol formulations in simulated gastric fluid (precipitate formation); type: physicochemical; details: for Precipitate formation, directly after addition: 3 mg in 1.5 mL Labrasol added to 10 mL SGF, visual inspection; for Precipitate formation, 5 min / Precipitate formation, 15 min / Precipitate formation, 30 min / Precipitate formation, 60 min / Precipitate formation, 24 h: Labrasol solution in SGF
Procedure: Simulated gastric fluid (SGF) is prepared as follows. 200 mg NaCl are dissolved in 70 mL H2O. 0.7 mL concentrated HCl is added. Subsequently, 320 mg of pepsin powder is added, and the mixture is filled up to 100 mL with H2O. A clear solution is obtained (pH 1-2).
1.5 mL of Labrasol® is added to 3 mg of the respective compound of formula I, and the obtained solutions are shaken. Subsequently, each of the solutions is added to 10 mL SGF by drop-wise addition. Precipitate formation is determined by visual inspection of each solution immediately after the addition of the solution comprising the respective compound of formula I in Labrasol® to SGF and after 5, 15, 30, and 60 min, and 24 h.

[4] = Solubility in 0.1 N HCl, PBS buffer, FaSSIF and FeSSIF; type: physicochemical; details: thermodynamic from solid
Summary of the method: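 Excess compound was shaken for 10 min at ambient temperature in 0.1 N HCl (pH 1), PBS (pH 7.4), FaSSIF (pH 6.5) or FeSSIF (pH 5.0). After centrifugation, the dissolved concentration was measured by reversed-phase HPLC with UV detection at 220 nm.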

[5] = Pharmacokinetic profile of compound 15 in Labrasol, TPGS/PG or phosphate buffer in rats; type: in vivo, Male Sprague-Dawley rats; details: oral 10 mg/kg entacapone equivalents, FIG. 1
Procedure: The pharmacokinetics of compound 15 in rats following oral administration is tested as described in Table 15 below.
The results are summarized in FIG. 1 (The symbols in FIG. 1 have the following meanings: c (ng/mL) concentration in ng/mL, t (min) time in minutes). […] Entacapone concentration is shown in ng/mL, and time is shown in minutes.

[6] = FaSSIF, pH 6.5, fassif, Table 11, read-out: Solubility FaSSIF pH 6.5
[7] = FaSSIF, pH 6.5, fassif, fasting state fluid, ambient temperature, read-out: Solubility FaSSIF Ph 6.5
[8] = FeSSIF, pH 5, fessif, Table 11, read-out: Solubility FeSSIF pH 5.0
[9] = FeSSIF, pH 5, fessif, fed state fluid, ambient temperature, read-out: Solubility FeSSIF Ph 5.0
[10] = PBS buffer, pH 7.4, aqueous buffer, Table 11, read-out: Solubility PBS pH 7.4
[11] = PBS buffer, pH 7.4, aqueous buffer, ambient temperature, read-out: Solubility PBS Ph 7.4

SMILES | chromatographic logD [1] | half-life at 5 μg/mL (Plasma stability ex vivo) [h] | Papp A→B at 60 min [2] [×10⁻⁶ cm/s] | Precipitate formation, directly after addition ([3]; after shaking) | Precipitate formation, directly after addition ([3]; initially, before shaking) | Precipitate formation, 5 min [3] | Precipitate formation, 15 min [3] | Precipitate formation, 30 min [3] | Precipitate formation, 60 min [3] | Precipitate formation, 24 h [3] | solubility at 10 min [4, 6] [µg/mL] | solubility at 10 min [4, 7] [µg/mL] | solubility at 10 min [4, 8] [µg/mL] | solubility at 10 min [4, 9] [µg/mL] | solubility at 10 min [4, 10] [µg/mL] | solubility at 10 min [4, 11] [µg/mL] | plasma level of entacapone formed, compared with phosphate buffer formulation ([5]; Labrasol formulation) | plasma level of entacapone formed, compared with phosphate buffer formulation ([5]; TPGS/PG formulation) | solubility at 10 min ([4]; 0.1 N HCl, pH 1, simulated gastric fluid, Table 11, maximum solubility, read-out: Solubility 0.1N HCl pH 1.0) [µg/mL] | solubility at 10 min ([4]; 0.1 N HCl, pH 1, simulated gastric fluid, ambient temperature, shaken 10 min, read-out: Solubility 0.1N HCl Ph 1.0) [µg/mL]
CCCCCCCCOC(=O)Oc1cc(/C=C(\C#N)C(=O)N(CC)CC)cc([N+](=O)[O-])c1O [Compound 35, Carbonic acid 5-((E)-2-cyano-2-diethylcarbamoyl-vinyl)-2-hydroxy-3-nitro-phenyl ester octyl ester] | 3.1 | 2 | > 42 | clear after shaking | First: white precipitate; | clear | clear | clear | clear | clear | 150 (≈ 325 µM) | 150 (≈ 325 µM) | 150 (≈ 325 µM) | 150 (≈ 325 µM) | 130 (≈ 282 µM) | 130 (≈ 282 µM) | – | – | – | –
CCCCC(CC)COC(=O)Oc1cc(/C=C(\C#N)C(=O)N(CC)CC)cc([N+](=O)[O-])c1O (centres unmarked) [Compound 15, Carbonic acid 5-((E)-2-cyano-2-diethylcarbamoyl-vinyl)-2-hydroxy-3-nitro-phenyl ester 2-ethyl-hexyl ester] | 2.9 | 1.48 | – | clear after shaking | First: white precipitate; | clear | clear | clear | clear | clear | 180 (≈ 390 µM) | 180 (≈ 390 µM) | 190 (≈ 412 µM) | 190 (≈ 412 µM) | 150 (≈ 325 µM) | 150 (≈ 325 µM) | more constant | more constant | – | –
CCCC(C)OC(=O)Oc1cc(/C=C(\C#N)C(=O)N(CC)CC)cc([N+](=O)[O-])c1O (centres unmarked) [Compound 63, Carbonic acid 5-((E)-2-cyano-2-diethylcarbamoyl-vinyl)-2-hydroxy-3-nitro-phenyl ester 1-methyl-butyl ester] | 1.4 | – | – | clear after shaking | First: white precipitate; | clear | clear | clear | clear | clear | 750 (≈ 1790 µM) | 750 (≈ 1790 µM) | 170 (≈ 405 µM) | 170 (≈ 405 µM) | 1230 (≈ 2930 µM) | 1230 (≈ 2930 µM) | – | – | 20 (≈ 47.7 µM) | 20 (≈ 47.7 µM)
CCN(CC)C(=O)/C(C#N)=C/c1cc(OC(=O)OCC2CCCCC2)c(O)c([N+](=O)[O-])c1 [Compound 57, Carbonic acid 5-((E)-2-cyano-2-diethylcarbamoyl-vinyl)-2-hydroxy-3-nitro-phenyl ester cyclohexylmethyl ester] | 2.3 | 0.302 | 55 | clear after shaking | First: white precipitate; | clear | clear | clear | clear | clear | 140 (≈ 314 µM) | 140 (≈ 314 µM) | 30 (≈ 67.3 µM) | 30 (≈ 67.3 µM) | 260 (≈ 584 µM) | 260 (≈ 584 µM) | – | – | – | –
